Patent publication US5304474A, “Hydrophobic peptide esters and amides” (Board of Regents, The University of Texas System, priority 1991, dated 1994)
Entries after “also recorded” stand apart in the source; their conditions may differ. Peptide text beside a SMILES is read from it. * marks the point of attachment. βNA = c1ccc2cc(N*)ccc2c1

Columns and labels:
[1] = test system: natural killer cells (NK); test: NK function: lysis of K562 target cells (51Cr release) after preincubation of lymphocytes with compound; conditions: for NK toxicity / effect on NK function, in words: lymphocytes exposed 15 minutes at room temperature (FIG. 4, FIG. 5); for NK Toxicity (LD50): concentration which results in 50% loss of human NK function, PBL 15 minutes at 22° C.; for NK Function % Specific Cytotoxicity: Nil 50.8 (Table 2); for prevention of Leu-OMe ablation of NK activity / permanent effect on NK function: PBM; for prevention of Leu-OMe ablation of NK activity: 5 mM Leu-OMe with lysosomal inhibitor (FIG. 1); for permanent effect on NK function: agent alone, washed, 18 hours culture, E:T 40:1 (FIG. 1); for effect of unesterified dipeptides on NK cell survival or lytic activity: up to 5×10^-3 M
[2] = test system: [^3 H]Leu-Leu-OMe uptake by PBL (facilitated transport); test: Competitive inhibition of [3H]Leu-Leu-OMe uptake; type: cell-based, human; conditions: for inhibition at 250 µM: Homo sapiens, unlabeled compound 250 microM
Description: Human peripheral blood lymphocytes (PBL) were incubated in the presence of [^3 H]labeled Leu-Leu-OMe at 22° C. for varying lengths of time. The incubation mixture was then centrifuged through silicone oil to separate the cells from any unbound or non-internalized [^3 HLeu-Leu-OMe. […] At 37° C., levels of [^3 H]Leu-Leu-OMe accumulation by PBL were increased above those seen at 22° C. (see Table 4).

human erythrocytes (RBC) = test: 51Cr release from RBC incubated with peptide ester alone; type: cell-based; conditions: for ^51 Cr Release from RBC: Nil 410 + 12
Description: The following experiments were carried out to determine whether DPPI could generate a lytic product from Leu-Leu-OMe. In the experiment detailed in FIG. 12, ^51 Cr-labeled human erythrocytes (RBC) were incubated with varying concentrations of Leu-Leu-OMe alone or in the presence of purified bovine DPPI.

[3] = [3H]Leu-Leu-OMe 10 microM (Table 6)
[4] = 250 micro-M, Nil 40.8 (Table 16)
[5] = [3H]Leu-Leu-OMe 10 microM (Table 5)

COC(=O)[C@H](CC(C)C)NC(=O)[C@H](C)N [Ala-Leu-OMe] (H-Ala-Leu-OMe)
NK toxicity / effect on NK function, in words [1]: had no NK inhibitory effects

COC(=O)[C@H](CC(C)C)NC(=O)[C@@H](N)CC(=O)O [Asp-Leu-OMe] (H-Asp-Leu-OMe)
NK toxicity / effect on NK function, in words [1]: exhibit no NK toxicity
competitive inhibition of [3H]Leu-Leu-OMe uptake, in words [2]: not competitively inhibited

COC(=O)[C@H](Cc1ccccc1)NC(=O)[C@@H](N)CC(=O)O [Asp-Phe-OMe, aspartyl phenylalanine methyl ester] (H-Asp-Phe-OMe)
NK Toxicity (LD50) [1]: > 250 micro-M
NK toxicity / effect on NK function, in words [1]: no observed NK inhibitory effects
NK Function % Specific Cytotoxicity ([1]; preincubation 100 micromolar): 54.2%
NK Function % Specific Cytotoxicity ([1]; preincubation 250 micromolar): 45.7%
NK Function % Specific Cytotoxicity ([1]; preincubation 500 micromolar): 45.7%
NK Function % Specific Cytotoxicity ([1]; preincubation 1000 micromolar): 46.9%
inhibition at 250 µM [2, 3]: 8%

COC(=O)[C@H](CC(C)C)NC(=O)CN [Gly-Leu-OMe]
NK toxicity / effect on NK function, in words [1]: greatly reduced NK toxicity

NCC(=O)N[C@@H](Cc1ccccc1)C(N)=O [Gly-Phe-NH2] (H-Gly-Phe-NH2)
NK Function % Specific Lysis K562 [1, 4]: 43.9%
NK toxicity / effect on NK function, in words [1]: has no apparent NK toxic effects

COC(=O)[C@H](Cc1ccccc1)NC(=O)CN [Gly-Phe-OMe] (H-Gly-Phe-OMe)
NK Function % Specific Lysis K562 [1, 4]: 34.5%
NK Function % Specific Lysis K562 ([1]; 500 micro-M, Nil 40.8 (Table 16)): 10.1%
NK toxicity / effect on NK function, in words [1]: a much less potent NK toxin than is Leu-Leu-OMe

NCC(=O)N[C@@H](Cc1ccccc1)C(=O)Nc1ccc2ccccc2c1 [Gly-Phe-beta-naphthylamide, glycyl L-phenylalanyl beta napthylamide] (H-Gly-Phe-βNA)
NK Function % Specific Lysis K562 ([1]; 1 micro-M, Nil 40.8 (Table 16)): 52.5%
NK Function % Specific Lysis K562 ([1]; 5 micro-M, Nil 40.8 (Table 16)): 1.2%
NK Function % Specific Lysis K562 ([1]; 20 micro-M, Nil 40.8 (Table 16)): 0.6%
NK toxicity / effect on NK function, in words [1]: a very potent NK toxin
competitive inhibition of [3H]Leu-Leu-OMe uptake, in words [2]: competitively inhibits [^3 H]Leu-Leu-OMe uptake by lymphocytes

CC[C@H](C)[C@H](N)C(=O)OC [Ile-OMe, reference compound]
prevention of Leu-OMe ablation of NK activity [1]: largely prevented
permanent effect on NK function [1]: neither chloroquine, NH4 Cl, nor Ile-OMe had any substantial permanent effect on NK function

COC(=O)[C@H](CC(C)C)NC(=O)[C@H](CC(C)C)NC(=O)[C@H](CC(C)C)NC(=O)[C@H](CC(C)C)NC(=O)[C@H](CC(C)C)NC(=O)[C@@H](N)CC(C)C [LLLLLLOMe] (H-LLLLLL-OMe)
^51 Cr Release from RBC (human erythrocytes (RBC); 20 micro-M): 698 + 137
^51 Cr Release from RBC (human erythrocytes (RBC); 100 micro-M): 6,129 + 400
^51 Cr Release from RBC (human erythrocytes (RBC); 500 micro-M): 3,531 + 101
damage to RBC by compound alone, in words (human erythrocytes (RBC); no DPPI): Disruption of erythrocyte membranes was observed

COC(=O)[C@H](CC(C)C)NC(=O)[C@H](CC(C)C)NC(=O)[C@H](CC(C)C)NC(=O)[C@@H](N)CC(C)C [LLLLOMe] (H-LLLL-OMe)
^51 Cr Release from RBC (human erythrocytes (RBC); 100 micro-M): 425 + 24
^51 Cr Release from RBC (human erythrocytes (RBC); 500 micro-M): 457 + 41

COC(=O)[C@H](CCCNC(=N)N)NC(=O)[C@@H](N)CC(C)C [Leu-Arg-OMe]
NK toxicity / effect on NK function, in words [1]: no observed NK inhibitory effects

COC(=O)CNC(=O)[C@@H](N)CC(C)C [Leu-Gly-OMe] (H-Leu-Gly-OMe)
NK toxicity / effect on NK function, in words [1]: greatly reduced NK toxicity

COC(=O)[C@H](CC(C)C)NC(=O)[C@H](CC(C)C)NC(=O)[C@@H](N)CC(C)C [Leu-Leu-Leu-OMe] (H-Leu-Leu-Leu-OMe)
concentration required for effect equivalent to Leu-Leu-OMe ([1]; MP-depleted lymphocytes (FIG. 4)): 5 fold
NK toxicity / effect on NK function, in words [1]: caused dose-dependent loss of NK function
competitive inhibition of [3H]Leu-Leu-OMe uptake, in words [2]: do not competitively inhibit PBL uptake of L-Leu-L-Leu-OMe
inhibition at 250 µM [2, 5]: 6%

CC(C)C[C@H](NC(=O)[C@@H](N)CC(C)C)C(N)=O [Leu-Leu-NH2]
NK Function % Specific Lysis K562 ([1]; 1.00 micro-M, Nil 66 (Table 14)): 66%
NK Function % Specific Lysis K562 ([1]; 250.00 micro-M, Nil 66 (Table 14)): 71%
NK toxicity / effect on NK function, in words [1]: no discernible toxicity for NK Cells
competitive inhibition of [3H]Leu-Leu-OMe uptake, in words [2]: do not competitively inhibit PBL uptake of L-Leu-L-Leu-OMe
inhibition at 250 µM [2, 5]: 8%

CC(C)C[C@H](NC(=O)[C@@H](N)CC(C)C)C(=O)OCc1ccccc1 [Leu-Leu-OBenzyl, L-leucyl-L-leucyl benzyl ester]
potency relative to Leu-Leu-OMe in depleting human PBL of cytotoxic lymphocytes [1]: greater than twofold more potent than Leu-Leu-OMe
NK Function % Specific Lysis K562 ([1]; 6.25 micro-M during preincubation, Nil 66 (Table 14)): 62%
NK Function % Specific Lysis K562 ([1]; 12.50 micro-M, Nil 66 (Table 14)): < 1%
NK Function % Specific Lysis K562 ([1]; 25.00 micro-M, Nil 66 (Table 14)): 1%
NK toxicity / effect on NK function, in words [1]: ablates human NK activity
competitive inhibition of [3H]Leu-Leu-OMe uptake, in words [2]: competitively inhibited
inhibition at 250 µM [2, 5]: 87%

CC(C)C[C@H](N)C(=O)N[C@@H](Cc1ccccc1)C(=O)O [Leu-Phe, L-leucyl L-phenylalanine, reference compound] (H-Leu-Phe-OH)
effect of unesterified dipeptides on NK cell survival or lytic activity [1]: had no effect on NK cell survival or lytic activity

COC(=O)[C@H](Cc1ccc(O)cc1)NC(=O)[C@@H](N)CC(C)C [Leu-Tyr-OMe] (H-Leu-Tyr-OMe)
NK Toxicity (LD50) [1]: > 250 micro-M
NK toxicity / effect on NK function, in words [1]: no observed NK inhibitory effects; also recorded: little or no toxicity for NK cells
competitive inhibition of [3H]Leu-Leu-OMe uptake, in words [2]: excellent competitive inhibitors of [^3 H]Leu-Leu-OMe uptake
inhibition at 250 µM [2, 3]: 86%

CC(C)C[C@H](N)C(=O)O [Leucine, L-leucine, reference compound]
NK toxicity / effect on NK function, in words [1]: had no irreversible effect on NK function

COC(=O)[C@H](CC(C)C)NC(=O)[C@@H](N)CCCCN [Lys-Leu-OMe] (H-Lys-Leu-OMe)
NK toxicity / effect on NK function, in words [1]: no observed NK inhibitory effects

Cl.N [NH4 Cl, reference compound]
prevention of Leu-OMe ablation of NK activity [1]: largely prevented
permanent effect on NK function [1]: neither chloroquine, NH4 Cl, nor Ile-OMe had any substantial permanent effect on NK function

CC(C)C[C@H](NC(=O)[C@@H](N)Cc1ccccc1)C(=O)O [Phe-Leu, L-phenylalanyl L-leucine, reference compound] (H-Phe-Leu-OH)
effect of unesterified dipeptides on NK cell survival or lytic activity [1]: had no effect on NK cell survival or lytic activity

COC(=O)[C@H](CC(C)C)NC(=O)[C@@H](N)Cc1ccccc1 [Phe-Leu-OMe] (H-Phe-Leu-OMe)
NK toxicity / effect on NK function, in words [1]: produced concentration-dependent ablation of NK function at concentrations comparable to those at which Leu-Leu-OMe was active

COC(=O)[C@@H](NC(=O)[C@@H](N)Cc1ccccc1)C(C)C [Phe-Val-OMe] (H-Phe-Val-OMe)
NK toxicity / effect on NK function, in words [1]: markedly less active than Val-Phe-OMe

COC(=O)[C@H](CC(C)C)NC(=O)[C@@H]1CCCN1 [Pro-Leu-OMe] (H-Pro-Leu-OMe)
NK Toxicity (LD50) [1]: > 250 micro-M
NK toxicity / effect on NK function, in words [1]: exhibit no NK toxicity
competitive inhibition of [3H]Leu-Leu-OMe uptake, in words [2]: not competitively inhibited
inhibition at 250 µM [2, 3]: -18%

COC(=O)[C@H](CC(C)C)NC(=O)[C@@H](N)CO [Ser-Leu-OMe] (H-Ser-Leu-OMe)
NK Toxicity (LD50) [1]: > 250 micro-M
NK toxicity / effect on NK function, in words [1]: no observed NK inhibitory effects; also recorded: little or no toxicity for NK cells
competitive inhibition of [3H]Leu-Leu-OMe uptake, in words [2]: excellent competitive inhibitors of [^3 H]Leu-Leu-OMe uptake
inhibition at 250 µM [2, 3]: 94%

CC(C)C[C@H](NC(=O)[C@@H](N)C(C)C)C(=O)O [Val-Leu, L-valyl L-leucine, reference compound] (H-Val-Leu-OH)
effect of unesterified dipeptides on NK cell survival or lytic activity [1]: had no effect on NK cell survival or lytic activity

COC(=O)[C@H](CC(C)C)NC(=O)[C@@H](N)C(C)C [Val-Leu-OMe] (H-Val-Leu-OMe)
NK toxicity / effect on NK function, in words [1]: produced concentration-dependent ablation of NK function at concentrations comparable to those at which Leu-Leu-OMe was active

CC(C)[C@H](N)C(=O)N[C@@H](Cc1ccccc1)C(=O)O [Val-Phe, L-valyl L-phenylalanine, reference compound] (H-Val-Phe-OH)
effect of unesterified dipeptides on NK cell survival or lytic activity [1]: had no effect on NK cell survival or lytic activity

COC(=O)[C@H](Cc1ccccc1)NC(=O)[C@@H](N)C(C)C [Val-Phe-OMe] (H-Val-Phe-OMe)
NK Toxicity (LD50) [1]: 24 micro-M
NK toxicity / effect on NK function, in words [1]: produced concentration-dependent ablation of NK function at concentrations comparable to those at which Leu-Leu-OMe was active; also recorded: among the most potent of the NK toxic dipeptide methyl esters
inhibition at 250 µM [2, 3]: 75%

COC(=O)[C@@H](NC(=O)[C@@H](N)C(C)C)C(C)C [Val-Val-OMe] (H-Val-Val-OMe)
NK toxicity / effect on NK function, in words [1]: less active than either Leu-Val-OMe or Val-Leu-OMe

zinc [reference compound]
effect on Leu-Leu-OMe mediated NK toxicity ([1]; added with Leu-Leu-OMe): appeared to inhibit this Leu-Leu-OMe toxicity
